Results published in patent publication US20250205230A1 (priority 2022, published 2025).

Columns and labels:
VSV-G = assay type: cell-based, vesicular stomatitis Indiana virus (VSV)
VSV-G glycoprotein = assay type: cell-based, vesicular stomatitis Indiana virus (VSV)

Structure (SMILES): CN(N=Cc1ccc(O)c(O)c1)c1nc(-c2ccccc2)cc(-c2ccccc2)n1 [MK-28, 4-((2-(4,6-diphenylpyrimidin-2-yl)-2-methylhydrazineylidene)methyl) benzene-1,2-diol]
- Endo H-resistance of VSV-G (VSV-G): decreased considerably
- Endo H-resistance of VSV-G relative to untreated control cells (VSV-G glycoprotein): about half the resistance of untreated control cells
